Data reported in PubChem BioAssay (NCI).
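Growth conditions: 96-well plates. Treatment: test compound, 48 hours, 5 concentrations. Analysis: linear interpolation between bracketing concentrations; unreached endpoints set to highest concentration. At the GI50, growth is halved. TGI is the concentration that stops growth completely.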

Assays:
Assay in all cases: NCI-60 cell line screen, 48 h
786-0 renal = system: 786-0 renal
NCI-H226 lung = system: NCI-H226 lung
U251 CNS = system: U251 CNS
KM12 colon = system: KM12 colon
MDA-MB-435 = system: MDA-MB-435
SK-MEL-2 melanoma = system: SK-MEL-2 melanoma
SNB-19 CNS = system: SNB-19 CNS
CCRF-CEM leukemia = system: CCRF-CEM leukemia
UACC-62 melanoma = system: UACC-62 melanoma
CAKI-1 renal = system: CAKI-1 renal
SF-268 CNS = system: SF-268 CNS
IGROV1 ovarian = system: IGROV1 ovarian
SK-OV-3 ovarian = system: SK-OV-3 ovarian
SNB-75 CNS = system: SNB-75 CNS
HCT-15 colon = system: HCT-15 colon
NCI-H460 lung = system: NCI-H460 lung
HOP-62 NSCLC = system: HOP-62 NSCLC
HOP-92 NSCLC = system: HOP-92 NSCLC
OVCAR-4 ovarian = system: OVCAR-4 ovarian
MALME-3M melanoma = system: MALME-3M melanoma
SR leukemia = system: SR leukemia
OVCAR-8 ovarian = system: OVCAR-8 ovarian
OVCAR-3 ovarian = system: OVCAR-3 ovarian
MDA-MB-231 breast = system: MDA-MB-231 breast
PC-3 prostate = system: PC-3 prostate
MOLT-4 leukemia = system: MOLT-4 leukemia
RXF 393 renal = system: RXF 393 renal
K-562 leukemia = system: K-562 leukemia
COLO 205 colon = system: COLO 205 colon
SK-MEL-5 melanoma = system: SK-MEL-5 melanoma
SW-620 colon = system: SW-620 colon
HL-60(TB) leukemia = system: HL-60(TB) leukemia
T-47D breast = system: T-47D breast
HCC-2998 colon = system: HCC-2998 colon
HS 578T breast = system: HS 578T breast
TK-10 renal = system: TK-10 renal
BT-549 breast = system: BT-549 breast
DU-145 prostate = system: DU-145 prostate
M14 melanoma = system: M14 melanoma
NCI/ADR-RES ovarian = system: NCI/ADR-RES ovarian
UACC-257 melanoma = system: UACC-257 melanoma
LOX IMVI melanoma = system: LOX IMVI melanoma
HCT-116 colon = system: HCT-116 colon
A498 renal = system: A498 renal
OVCAR-5 ovarian = system: OVCAR-5 ovarian
ACHN renal = system: ACHN renal
HT29 colon = system: HT29 colon
UO-31 renal = system: UO-31 renal
EKVX NSCLC = system: EKVX NSCLC
SF-539 CNS = system: SF-539 CNS
NCI-H522 lung = system: NCI-H522 lung
NCI-H23 lung = system: NCI-H23 lung
A549 NSCLC = system: A549 NSCLC
SN12C renal = system: SN12C renal
MCF7 breast = system: MCF7 breast
SF-295 CNS = system: SF-295 CNS
SK-MEL-28 melanoma = system: SK-MEL-28 melanoma
RPMI-8226 leukemia = system: RPMI-8226 leukemia
MDA-MB-468 breast = system: MDA-MB-468 breast

## CCCCN1C(=O)/C(=C\C(=O)c2cc3ccccc3oc2=O)c2ccccc21
786-0 renal
  GI50: 18 µM
  TGI: 31.9 µM
NCI-H226 lung
  GI50: 14.4 µM
  TGI: 31.7 µM
U251 CNS
  GI50: > 100 µM
  TGI: > 100 µM
KM12 colon
  GI50: > 100 µM
  TGI: > 100 µM
MDA-MB-435
  GI50: 17.6 µM
  TGI: 41.6 µM
SK-MEL-2 melanoma
  GI50: 52 µM
  TGI: > 100 µM
SNB-19 CNS
  GI50: > 100 µM
  TGI: > 100 µM
CCRF-CEM leukemia
  GI50: 4.26 µM
  TGI: 24.2 µM
UACC-62 melanoma
  GI50: 14.6 µM
  TGI: 29.7 µM
CAKI-1 renal
  GI50: 14.2 µM
  TGI: 27.8 µM
SF-268 CNS
  GI50: 16.9 µM
  TGI: 36.3 µM
IGROV1 ovarian
  GI50: 24.5 µM
  TGI: 94.8 µM
SK-OV-3 ovarian
  GI50: > 100 µM
  TGI: > 100 µM
SNB-75 CNS
  GI50: 19 µM
  TGI: > 100 µM
HCT-15 colon
  GI50: 15.6 µM
  TGI: 30.7 µM
NCI-H460 lung
  GI50: > 100 µM
  TGI: > 100 µM
HOP-62 NSCLC
  GI50: > 100 µM
  TGI: > 100 µM
HOP-92 NSCLC
  GI50: 13 µM
  TGI: 27.7 µM
OVCAR-4 ovarian
  GI50: 16.9 µM
  TGI: 35.4 µM
MALME-3M melanoma
  GI50: 13.7 µM
  TGI: 26.7 µM
SR leukemia
  GI50: 23 µM
  TGI: 86.1 µM
OVCAR-8 ovarian
  GI50: 18.3 µM
  TGI: 47.5 µM
OVCAR-3 ovarian
  GI50: 15.2 µM
  TGI: 29.7 µM
MDA-MB-231 breast
  GI50: 14.3 µM
  TGI: 27.6 µM
PC-3 prostate
  GI50: 32.2 µM
  TGI: > 100 µM
MOLT-4 leukemia
  GI50: 22.4 µM
  TGI: 64 µM
RXF 393 renal
  GI50: 15.7 µM
  TGI: 29.6 µM
K-562 leukemia
  GI50: 11.6 µM
  TGI: 84.7 µM
COLO 205 colon
  GI50: 17 µM
  TGI: 31.1 µM
SK-MEL-5 melanoma
  GI50: 48.7 µM
  TGI: > 100 µM
SW-620 colon
  GI50: 14.3 µM
  TGI: 29.7 µM
HL-60(TB) leukemia
  GI50: 3.06 µM
  TGI: 11.9 µM
T-47D breast
  GI50: 14 µM
  TGI: 28.7 µM
HCC-2998 colon
  GI50: > 100 µM
  TGI: > 100 µM
HS 578T breast
  GI50: 20.7 µM
  TGI: > 100 µM
TK-10 renal
  GI50: 20.9 µM
  TGI: 35.8 µM
BT-549 breast
  GI50: 19.4 µM
  TGI: 70.1 µM
DU-145 prostate
  GI50: 16.7 µM
  TGI: 33.2 µM
M14 melanoma
  GI50: 14.8 µM
  TGI: 29.3 µM
NCI/ADR-RES ovarian
  GI50: 22.9 µM
  TGI: 64.3 µM
UACC-257 melanoma
  GI50: 14.7 µM
  TGI: 31.3 µM
LOX IMVI melanoma
  GI50: 15.2 µM
  TGI: 28.7 µM
HCT-116 colon
  GI50: 16.3 µM
  TGI: 31.1 µM
A498 renal
  GI50: > 100 µM
  TGI: > 100 µM
OVCAR-5 ovarian
  GI50: 30.6 µM
  TGI: > 100 µM
ACHN renal
  GI50: 13.4 µM
  TGI: 26.1 µM
HT29 colon
  GI50: 20.3 µM
  TGI: 41.2 µM
UO-31 renal
  GI50: 11.4 µM
  TGI: 23.7 µM
EKVX NSCLC
  GI50: 15.5 µM
  TGI: 32 µM
SF-539 CNS
  GI50: 16.2 µM
  TGI: 30 µM
NCI-H522 lung
  GI50: 14.3 µM
  TGI: 28.7 µM
NCI-H23 lung
  GI50: 27.4 µM
  TGI: > 100 µM
A549 NSCLC
  GI50: > 100 µM
  TGI: > 100 µM
SN12C renal
  GI50: 14.7 µM
  TGI: 30 µM
MCF7 breast
  GI50: 12.6 µM
  TGI: 28.7 µM
SF-295 CNS
  GI50: > 100 µM
  TGI: > 100 µM
SK-MEL-28 melanoma
  GI50: 15.5 µM
  TGI: 29.1 µM
RPMI-8226 leukemia
  GI50: 19.9 µM
  TGI: 54.4 µM
MDA-MB-468 breast
  GI50: 4.5 µM
  TGI: 17.8 µM
